Results reported in patent US10829493B2, “Compositions and methods for treating KIT- and PDGFRA-mediated diseases” (Blueprint Medicines Corporation, priority 2019, dated 2020).
Several values for one entry are separate records, joined by “and”; a condition that tells them apart may be missing. Identical values can stand only once. Like-named read-outs stand apart in the source and are kept apart here.

What was measured:
[1] = Brain penetration in rats, brain to plasma ratios (Kp,brain, Kpuu,brain); format: in vivo, Sprague-Dawley rats; details: for concentration at 24 h / Kp uu at 24 h: intravenous
Text: To understand the brain penetration, brain to plasma ratios of the compounds were obtained in Sprague-Dawley (SD) rats. In vivo equilibrium distribution between blood and brain in preclinical species such as rats is a commonly used parameter to evaluate brain penetration. Kp,brain is the ratio of concentrations in brain and blood (Cbrain/Cplasma) The compound's passive diffusion characteristics, its affinity for membrane transporters at the blood-brain barrier (BBB), and the relative drug binding affinity differences between the plasma proteins and brain tissue influence the Kp,brain.
The animals received IV infusion of 1 mg/kg/hr of the compound over 24 hours via jugular vein cannulation. At 24 hours, blood was collected via tail vein bleeding or cardiac puncture (under anesthesia) and centrifuged to obtain plasma samples. Brain tissues were collected and homogenized with phosphate-buffered saline (PBS). The concentrations of the compounds were obtained in the plasma and brain homogenates by LC-MS/MS analysis.

[2] = Rat plasma protein binding, equilibrium dialysis; format: in vitro ADME; details: 100% rat plasma, equilibrium dialysis 5 hours at 37° C.; for fraction unbound at 5 h, 10 μM: read-out: Fraction unbound fu,p, rat plasma
Method: Rat plasma protein binding of 4 and 63 were evaluated in vitro using an equilibrium dialysis method. […] Samples from the donor and receiver sides were analyzed by LC-MS/MS. Plasma protein bound and unbound fractions were calculated using the following equations—d Fraction bound (fb)*(%)=100×([Donor]5h−[Receiver]5h)/[Donor]5h (Equation 1) Fraction unbound (fu),p*(%)=100−% Bound* (Equation 2) where: [Donor]5h is measured donor concentration at 5-hour; [Received]5h is measured receiver concentration at 5-hour; fb* is bound fraction determined from plasma; fu,p* is calculated unbound fraction for plasma. Warfarin and quinidine were used as positive controls.

[3] = Rat brain protein binding in brain homogenate, equilibrium dialysis; format: in vitro ADME; details: equilibrium dialysis 5 hours at 37° C., read-out: fu,brain (brain homogenate)
Method: Similarly, rat brain protein binding of 4 and 63 were also evaluated in vitro using equilibrium dialysis method. 1 μM of the compound was assessed in brain homogenate in a dialysis block for 5 hours at 37° C. Samples from the donor and receiver sides were analyzed by LC-MS/MS. Brain protein bound and unbound fractions were calculated using the equations mentions above (Equations 1 and 2). Due to extensive protein binding, 4 was diluted further 4× for the brain homogenate measurement. The fu,brain of 4 and 63 were 0.29% and 0.1% respectively.

[4] = Rat brain protein binding in rat brain slices; format: in vitro ADME; details: rat brain slices (300 um thick); 300 um thick rat brain slices (striatum area); read-out: fu,brain (rat brain slices)
Method: Alternatively, rat brain protein binding of compounds 4 and 63 was evaluated in vitro by employing 300 um thick rat brain slices (striatum area) in an incubation tray. The fu,brain of compounds 4 and 63 by this method was 0.329% and 0.057% respectively. In that case, the Kp,uu, brain of 4 and 63 are 0.028 and 0.044 respectively.

[5] = Monkey brain to plasma ratio (Kp, Kpuu) after iv bolus and 2-hour iv infusion; format: in vivo
Method: A single IV bolus dose followed by a 2-hour iv infusion of the compound was administered to the monkey (3 monkeys/compound). Blood was collected from a femoral vein predose, right after the bolus administration and at the end of the infusion. The monkey was euthanized after the infusion and brain tissue was collected. Toxicokinetic evaluation of plasma (obtained by centrifugation of blood) and brain (homogenized in a buffer) was conducted to obtain brain to plasma ratio (Kp) of the compound. Kpuu was calculated by taking into consideration the fu,plasma and fu,brain as discussed above.

[6] = tested on: UT-7 cells; assay: UT-7 cell proliferation with SCF stimulation as a measure of wild-type KIT activity (CellTiter-Glo); format: cell-based, human; details: Homo sapiens, UT7, 72 h, SCF-stimulated UT-7 cell proliferation
Text: UT-7 Cell Proliferation with SCF Stimulation Assay as a Measure of Wild-Type KIT Activity
UT-7 cells are human megakaryoblastic leukemia cell lines that can be grown in culture with dependence on granulocyte macrophage colony stimulating factor (GM-CSF) or stem cell factor (SCF). UT-7 cells respond to SCF stimulation by activation of the KIT receptor tyrosine kinase and subsequent downstream signaling that can support cell growth and proliferation (Kuriu et al, 1999; Komatsu et al, 1991; Sasaki et al, 1995). Test compounds were assayed for their ability to inhibit SCF-stimulated proliferation of UT-7 cells.
Inhibition of SCF-stimulated UT-7 cell proliferation was assessed using the CellTiter-Glo assay that quantifies the amount of adenosine triphosphate (ATP) present, which is a readout of metabolically active cells and is directly proportional to the number of viable cells in culture. The ability of test compounds to inhibit SCF-stimulated UT-7 cell proliferation was determined using a 10-point dose curve ranging from 25 μM to 95.4 pM of test compound.
UT-7 cells were maintained in IMDM supplemented with 10% FBS, 5 ng/mL GM-CSF and 100 units/mL Penicillin-Streptomycin and grown in a 37° C. humidified tissue culture incubator. UT-7 cells were washed once with serum free, GM-CSF free IMDM. Cells were then resuspended in IMDM containing 4% FBS and 50 ng/mL SCF and seeded at 2500 cells per well in a volume of 22 μL in a 384-well microplate. A 10-point dose concentration series of test compounds (25.0 μM to 95.4 pM) were then added to the cells in a volume of 3.1 μL to each well (0.25% DMSO final concentration) and placed in a tissue culture incubator (5% CO2, 37° C.) for 72 hours. After 3-days with test compound, CellTiter-Glo reagent was prepared fresh and 25 μL of reagent was added to each well. The plate was mixed by shaking for 10 minutes at RT at 300 rpm on a plate shaker. The plate was read on an EnVision plate reader using the Ultra Sensitive Luminescence protocol for a 384-well plate.

[7] = target: CYP2D6 (Homo sapiens (Human), UniProt P10635); assay: CYP inhibition in human liver microsomes, CYP2D6 (dextromethorphan); format: in vitro ADME; details: pooled human liver microsomes, substrate dextromethorphan
Method: In vitro studies in human liver microsomes were run according the standard method. […] The samples were then analyzed by LC-MS/MS for the quantification of the probe substrate left after the reaction and the IC50 values were determined by non-linear regression. The substrates for CYP2C9, CYP2D6, CYP3A4 were diclofenac, dextromethorphan and midazolam/testosterone respectively.

[8] = Sprague-Dawley, rat, brain, 1 mg/kg/hr, individual rats (Rat 1-3), IV infusion 1 mg/kg/hr over 24 hours, at 24 hours, read-out: Brain Concentration
[9] = Sprague-Dawley, rat, brain, 1 mg/kg/hr, mean of 3 rats, IV infusion 1 mg/kg/hr over 24 hours, at 24 hours, read-out: Brain Concentration (ng/mL), Mean
[10] = Sprague-Dawley, rat, brain, 1 mg/kg/hr, rat, from total mean brain concentration and fu,brain (homogenate), read-out: Unbound concentration, Brain
[11] = Sprague-Dawley, rat, plasma, 1 mg/kg/hr, individual rats (Rat 1-3), IV infusion 1 mg/kg/hr over 24 hours, at 24 hours, read-out: Plasma Concentration
[12] = Sprague-Dawley, rat, plasma, 1 mg/kg/hr, mean of 3 rats, IV infusion 1 mg/kg/hr over 24 hours, at 24 hours, read-out: Plasma Concentration (ng/mL), Mean
[13] = Sprague-Dawley, rat, plasma, 1 mg/kg/hr, rat, from total mean plasma concentration and fu,p, read-out: Unbound concentration, Plasma
[14] = individual rats (Rat 1-3), IV infusion 1 mg/kg/hr over 24 hours, at 24 hours
[15] = mean of 3 rats, IV infusion 1 mg/kg/hr over 24 hours, at 24 hours
[16] = rat, unbound brain to plasma ratio, fu,brain from brain homogenate

Sequence of CYP2D6 (P10635 whole entry): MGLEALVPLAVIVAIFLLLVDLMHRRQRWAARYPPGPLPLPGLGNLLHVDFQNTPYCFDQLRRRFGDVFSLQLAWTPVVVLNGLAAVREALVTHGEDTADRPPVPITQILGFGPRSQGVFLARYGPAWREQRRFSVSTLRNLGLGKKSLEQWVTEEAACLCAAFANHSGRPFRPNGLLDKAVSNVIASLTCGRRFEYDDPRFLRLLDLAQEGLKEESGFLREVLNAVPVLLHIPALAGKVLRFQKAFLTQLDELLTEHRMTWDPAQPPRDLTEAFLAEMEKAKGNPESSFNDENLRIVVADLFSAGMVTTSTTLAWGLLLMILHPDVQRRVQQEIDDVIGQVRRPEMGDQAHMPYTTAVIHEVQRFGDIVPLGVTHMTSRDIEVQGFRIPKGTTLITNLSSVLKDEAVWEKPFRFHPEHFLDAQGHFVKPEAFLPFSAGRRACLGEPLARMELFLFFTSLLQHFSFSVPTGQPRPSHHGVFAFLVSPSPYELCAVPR

SMILES	concentration at 24 h [1, 8]	concentration at 24 h [1, 9]	concentration at 24 h [1, 10]	concentration at 24 h [1, 11]	concentration at 24 h [1, 12]	concentration at 24 h [1, 13]	Brain Concentration [1, 14]	Kp, brain [1, 14]	Plasma Concentration [1, 14]	Kp, brain, Mean [1, 15]	Kpuu,brain [1, 16]	Fraction bound (fb), rat plasma [2]	fraction unbound at 5 h, 10 μM [2]	fraction unbound at 5 h, 1 μM [3]	fraction unbound [4]	IC50 [6]	other results
CCn1cc(-c2cc3c(N4CCN(c5ncc([C@@](C)(N)c6ccc(F)cc6)cn5)CC4)ncnn3c2)cn1 [Compound 63, reference compound]	1920 ng/mL	1700 ng/mL	1.7 ng/mL	1140 ng/mL	1010 ng/mL	2.02 ng/mL	1890 ng/mL and 1300 ng/mL	1.68 and 2.40 and 1.18	789 ng/mL and 1100 ng/mL	1.75	0.84	99.8%	0.002	0.001	0.00057	150 to 200 nM	Kp uu at 24 h ([1]; Sprague-Dawley, rat, brain, 1 mg/kg/hr, rat, fu,brain from brain slices, read-out: Kp,uu, brain (brain slice method)): 0.044; Kp uu at 24 h ([1]; Sprague-Dawley, rat, brain, 1 mg/kg/hr, rat, unbound brain to plasma ratio, fu,brain from brain homogenate, read-out: Kpuu,brain): 0.84; Kp at 24 h ([1]; Sprague-Dawley, rat, brain, iv, 1 mg/kg/hr, mean of 3 rats, IV infusion 1 mg/kg/hr over 24 hours, at 24 hours, read-out: Kp, brain, Mean): 1.8; Kp at 2 h ([5]; brain, IV bolus followed by 2-hour iv infusion): 1.86; Kp uu at 2 h ([5]; intravenous, calculated with fu,plasma and fu,brain): 0.92
C[C@](N)(c1ccc(F)cc1)c1cnc(N2CCN(c3ncnn4cc(-c5cnn(CCO)c5)cc34)CC2)nc1 [Compound 4, (S)-2-(4-(4-(4-(5-(1-amino-1-(4-fluorophenyl)ethyl)pyrimidin-2-yl)piperazin-1-yl)pyrrolo[2,1-f][1,2,4]triazin-6-yl)-1H-pyrazol-1-yl)ethanol]	152 ng/mL	183 ng/mL	0.53 ng/mL	859 ng/mL	1050 ng/mL	21.9 ng/mL	188 ng/mL and 208 ng/mL	0.177 and 0.168 and 0.174	1120 ng/mL and 1180 ng/mL	0.17 and 0.174	0.024	97.92%	0.0208	0.0029	0.00329	< 90 nM	Kp,uu, brain (brain slice method) ([1]; rat, fu,brain from brain slices): 0.028; IC50 [7]: 10000 nM; Kp (Brain:Plasma) ([5]; IV bolus followed by 2-hour iv infusion): 0.09; Kpuu ([5]; calculated with fu,plasma and fu,brain): 0.01
